Data published in ChEMBL document CHEMBL5104103 (J Med Chem, 2022).
Converted amounts (≈) assume the structure as drawn.

How the values were obtained:
[1] = Inhibition of anti-IgM-stimulated CD20+ B cell activation in human whole blood assessed as measuring CD69 expression level pretreated for 1 hr followed by anti-IgM stimulation measured after 18 hrs by flow cytometry
[2] = Oral bioavailability in rat at 20 mg/kg; type: ADME, organism-based; conditions: in vivo
[3] = Cmax in rat at 20 mg/kg, po or 2 mg/kg, iv; type: ADME, organism-based; set-up: dose 20 mg/kg, route po; conditions: in vivo
[4] = Clearance in rat at 2 mg/kg, iv; type: ADME, organism-based; conditions: in vivo
[5] = AUC in rat at 20 mg/kg, po or 2 mg/kg, iv; type: ADME, organism-based; set-up: dose 20 mg/kg, route po; conditions: in vivo, read-out: AUC
[6] = Permeability across apical to basolateral membrane in human Caco-2 cells; type: ADME, cell-based; conditions: read-out: permeability
[7] = Permeability across basolateral to apical membrane in human Caco-2 cells; type: ADME, cell-based; conditions: read-out: permeability
[8] = Solubility of compound in PBS at pH 7 by LCMS/MS analysis; type: physicochemical
[9] = Clearance in human liver S9 fraction assessed as measuring per mg protein by LCMS/MS analysis; type: ADME, subcellular; conditions: read-out: CLH
[10] = molecular target: T1, Tyrosine-protein kinase TXK (Homo sapiens, UniProt P42681); assay: Inhibition of RLK (unknown origin) using peptide substrate in presence of ATP
T1 sequence (P42681 whole entry): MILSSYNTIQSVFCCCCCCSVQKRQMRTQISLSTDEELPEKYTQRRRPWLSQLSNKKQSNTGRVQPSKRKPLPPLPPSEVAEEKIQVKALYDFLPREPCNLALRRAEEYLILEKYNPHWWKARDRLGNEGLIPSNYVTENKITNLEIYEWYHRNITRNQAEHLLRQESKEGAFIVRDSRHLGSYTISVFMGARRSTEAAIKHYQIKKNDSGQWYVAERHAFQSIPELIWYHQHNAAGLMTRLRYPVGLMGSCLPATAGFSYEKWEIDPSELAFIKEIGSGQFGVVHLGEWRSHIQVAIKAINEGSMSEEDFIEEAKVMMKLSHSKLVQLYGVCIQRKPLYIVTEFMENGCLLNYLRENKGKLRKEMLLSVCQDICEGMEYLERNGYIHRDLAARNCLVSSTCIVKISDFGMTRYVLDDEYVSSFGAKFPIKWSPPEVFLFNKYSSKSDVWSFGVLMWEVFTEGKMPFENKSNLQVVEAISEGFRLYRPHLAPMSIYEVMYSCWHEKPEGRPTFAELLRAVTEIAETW

[11] = molecular target: T2, Tyrosine-protein kinase Tec (Homo sapiens, UniProt P42680); assay: Inhibition of TEC (unknown origin) using peptide substrate in presence of ATP
T2 sequence (P42680 whole entry): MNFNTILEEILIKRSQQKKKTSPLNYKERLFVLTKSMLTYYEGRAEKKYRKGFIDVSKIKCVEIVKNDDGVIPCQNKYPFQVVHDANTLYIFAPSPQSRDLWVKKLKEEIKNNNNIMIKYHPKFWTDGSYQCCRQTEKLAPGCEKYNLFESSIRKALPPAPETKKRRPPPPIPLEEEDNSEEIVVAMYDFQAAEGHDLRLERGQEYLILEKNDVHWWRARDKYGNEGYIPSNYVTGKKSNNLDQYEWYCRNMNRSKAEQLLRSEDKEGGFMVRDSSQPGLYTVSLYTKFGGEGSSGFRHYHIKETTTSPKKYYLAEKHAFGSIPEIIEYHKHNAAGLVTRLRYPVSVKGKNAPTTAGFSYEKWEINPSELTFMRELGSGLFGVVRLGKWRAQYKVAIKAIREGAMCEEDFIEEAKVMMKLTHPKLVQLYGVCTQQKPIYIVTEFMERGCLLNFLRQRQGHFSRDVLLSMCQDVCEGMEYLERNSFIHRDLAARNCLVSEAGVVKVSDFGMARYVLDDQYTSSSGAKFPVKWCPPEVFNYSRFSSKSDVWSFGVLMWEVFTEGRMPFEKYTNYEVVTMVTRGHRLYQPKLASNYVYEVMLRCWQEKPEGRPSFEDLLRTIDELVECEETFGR

[12] = molecular target: T3, Cytoplasmic tyrosine-protein kinase BMX (Homo sapiens, UniProt P51813); assay: Inhibition of BMX (unknown origin) using peptide substrate in presence of ATP
T3 sequence (P51813 whole entry): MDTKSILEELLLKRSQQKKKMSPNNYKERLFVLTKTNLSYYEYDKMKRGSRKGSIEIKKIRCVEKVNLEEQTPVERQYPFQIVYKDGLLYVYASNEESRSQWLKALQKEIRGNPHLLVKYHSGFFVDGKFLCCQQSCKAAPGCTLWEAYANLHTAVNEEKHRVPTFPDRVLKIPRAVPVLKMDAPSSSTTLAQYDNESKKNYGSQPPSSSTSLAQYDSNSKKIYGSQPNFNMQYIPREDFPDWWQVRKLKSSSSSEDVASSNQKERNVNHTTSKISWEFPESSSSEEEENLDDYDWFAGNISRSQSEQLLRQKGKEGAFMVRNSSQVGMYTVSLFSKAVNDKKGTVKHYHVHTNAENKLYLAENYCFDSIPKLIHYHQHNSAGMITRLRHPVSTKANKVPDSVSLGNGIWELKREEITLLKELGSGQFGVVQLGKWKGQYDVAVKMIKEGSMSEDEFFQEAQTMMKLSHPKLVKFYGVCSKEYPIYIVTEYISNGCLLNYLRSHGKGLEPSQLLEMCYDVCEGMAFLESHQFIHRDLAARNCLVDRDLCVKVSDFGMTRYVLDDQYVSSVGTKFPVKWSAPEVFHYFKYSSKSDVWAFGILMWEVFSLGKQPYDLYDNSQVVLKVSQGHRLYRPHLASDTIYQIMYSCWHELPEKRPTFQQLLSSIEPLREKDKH

[13] = molecular target: Tyrosine-protein kinase Blk (Homo sapiens, UniProt P51451); assay: Inhibition of BLK (unknown origin) using peptide substrate in presence of ATP
[14] = Drug concentration in plasma of collagen-induced arthritis Lewis rat model 20 mg/kg measured after 1 hr post-collection of plasma; type: ADME, organism-based
[15] = Drug concentration in plasma of collagen-induced arthritis Lewis rat model 20 mg/kg measured after 4 hrs post-collection of plasma; type: ADME, organism-based
[16] = Drug concentration in plasma of collagen-induced arthritis Lewis rat model 20 mg/kg measured after 12 hrs post-collection of plasma; type: ADME, organism-based
[17] = Drug concentration in plasma of collagen-induced arthritis Lewis rat model 20 mg/kg measured after 24 hrs post-collection of plasma; type: ADME, organism-based; conditions: in vivo, BLD = below limit of detection
[18] = molecular target: Voltage-gated inwardly rectifying potassium channel KCNH2 (Homo sapiens, UniProt Q12809); assay: Inhibition of hERG; type: toxicity
Chain of Voltage-gated inwardly rectifying potassium channel KCNH2 (Q12809 whole entry): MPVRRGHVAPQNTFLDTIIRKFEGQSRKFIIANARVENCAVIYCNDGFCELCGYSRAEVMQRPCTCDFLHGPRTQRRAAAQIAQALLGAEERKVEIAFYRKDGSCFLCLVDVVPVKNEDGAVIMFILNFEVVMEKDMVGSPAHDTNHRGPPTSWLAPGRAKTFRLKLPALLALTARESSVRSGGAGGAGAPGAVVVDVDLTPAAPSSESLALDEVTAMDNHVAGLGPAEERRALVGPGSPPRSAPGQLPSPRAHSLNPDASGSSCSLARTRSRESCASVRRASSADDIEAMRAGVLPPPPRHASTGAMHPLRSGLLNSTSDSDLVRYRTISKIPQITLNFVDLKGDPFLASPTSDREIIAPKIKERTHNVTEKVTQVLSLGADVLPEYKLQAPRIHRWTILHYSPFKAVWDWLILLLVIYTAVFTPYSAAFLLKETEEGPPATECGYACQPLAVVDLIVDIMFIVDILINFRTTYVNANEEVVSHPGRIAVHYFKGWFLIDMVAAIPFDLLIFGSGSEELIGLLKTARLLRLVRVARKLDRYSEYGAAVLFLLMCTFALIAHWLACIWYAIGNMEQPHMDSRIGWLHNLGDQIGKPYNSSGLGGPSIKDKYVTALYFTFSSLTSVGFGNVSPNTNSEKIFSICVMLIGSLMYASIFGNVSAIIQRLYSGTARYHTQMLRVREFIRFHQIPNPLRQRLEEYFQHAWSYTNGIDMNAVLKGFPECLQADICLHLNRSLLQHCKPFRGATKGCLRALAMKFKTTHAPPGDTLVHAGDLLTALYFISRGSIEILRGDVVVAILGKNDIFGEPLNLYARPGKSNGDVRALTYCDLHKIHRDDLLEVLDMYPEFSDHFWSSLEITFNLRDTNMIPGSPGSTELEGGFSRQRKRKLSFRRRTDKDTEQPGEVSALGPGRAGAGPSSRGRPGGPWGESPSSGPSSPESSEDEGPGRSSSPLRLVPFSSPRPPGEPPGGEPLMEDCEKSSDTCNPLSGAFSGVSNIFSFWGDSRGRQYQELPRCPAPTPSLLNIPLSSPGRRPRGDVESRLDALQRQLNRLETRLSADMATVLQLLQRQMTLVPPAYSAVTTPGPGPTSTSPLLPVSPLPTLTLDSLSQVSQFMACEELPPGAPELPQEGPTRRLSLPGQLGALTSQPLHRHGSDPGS

Chain of Tyrosine-protein kinase Blk (P51451 whole entry): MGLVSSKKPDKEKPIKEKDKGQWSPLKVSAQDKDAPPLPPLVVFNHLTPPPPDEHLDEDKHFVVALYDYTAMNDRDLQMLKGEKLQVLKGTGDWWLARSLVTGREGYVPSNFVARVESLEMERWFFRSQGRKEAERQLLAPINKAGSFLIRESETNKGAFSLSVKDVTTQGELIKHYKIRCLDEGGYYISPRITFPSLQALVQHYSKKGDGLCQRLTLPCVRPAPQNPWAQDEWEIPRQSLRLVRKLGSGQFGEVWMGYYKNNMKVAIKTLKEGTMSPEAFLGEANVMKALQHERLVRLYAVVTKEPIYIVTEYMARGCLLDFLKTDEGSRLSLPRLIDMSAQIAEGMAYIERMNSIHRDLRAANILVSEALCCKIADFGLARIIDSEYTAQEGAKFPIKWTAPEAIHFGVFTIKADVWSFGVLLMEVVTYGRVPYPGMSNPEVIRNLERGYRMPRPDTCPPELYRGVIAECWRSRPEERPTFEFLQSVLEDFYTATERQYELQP

SMILES	IC50 [1] [nM]	Papp A→B [6] [×10⁻⁶ cm/s]	Papp B→A [7] [×10⁻⁶ cm/s]	solubility [8] [µM]	microsomal CLint [9] [µL/min/mg]	other results
CN(C)C(C)(C)/C=C(\C#N)C(=O)N1CCC[C@@H](n2nc(-c3ccc(Oc4ccccc4)cc3F)c3c(N)ncnc32)C1	158					
CC(C)(/C=C(\C#N)C(=O)N1CCC[C@@H](n2nc(-c3ccc(Oc4ccccc4)cc3F)c3c(N)ncnc32)C1)N1CCN(C2COC2)CC1 [RILZABRUTINIB]	123	1.7	5.3	125 (≈ 83.2 µg/mL)	23	bioavailability [2]: 12.3%; Cmax [3]: 270 ng/mL; clearance [4]: 66 mL/min/kg; AUC [5]: 622 ng·h/mL; IC50 [10]: 1.2 nM; IC50 [11]: 0.8 nM; IC50 [12]: 1 nM; IC50 [13]: 6.3 nM; concentration at 1 h [14]: 128 ng/mL; concentration at 4 h [15]: 106 ng/mL; concentration at 12 h [16]: 4.6 ng/mL; Cp [17]: Bld
CC(C)(/C=C(\C#N)C(=O)N1CCC[C@@H](n2nc(-c3ccc(Oc4ccccc4)cc3F)c3c(N)ncnc32)C1)CO	821					
CC(C)(N)/C=C(\C#N)C(=O)N1CCC[C@@H](n2nc(-c3ccc(Oc4ccccc4)cc3F)c3c(N)ncnc32)C1	360					
CC1(/C=C(\C#N)C(=O)N2CCC[C@@H](n3nc(-c4ccc(Oc5ccccc5)cc4F)c4c(N)ncnc43)C2)COC1	224					
CC(C)(/C=C(\C#N)C(=O)N1CCC[C@@H](n2nc(-c3ccc(Oc4ccccc4)cc3F)c3c(N)ncnc32)C1)N1CCOCC1	16.7					
CN1CCN(C(C)(C)/C=C(\C#N)C(=O)N2CCC[C@@H](n3nc(-c4ccc(Oc5ccccc5)cc4F)c4c(N)ncnc43)C2)CC1=O	130	0.4	5.5	90 (≈ 57.4 µg/mL)	80	bioavailability [2]: 10.9%; Cmax [3]: 345 ng/mL; clearance [4]: 73 mL/min/kg; AUC [5]: 528 ng·h/mL
CC(C)(/C=C(\C#N)C(=O)N1CCC[C@@H](n2nc(-c3ccc(Oc4ccccc4)cc3F)c3c(N)ncnc32)C1)N1CCNC(=O)C1	381	1	25.8			
CC(=O)N1CCN(C(C)(C)/C=C(\C#N)C(=O)N2CCC[C@@H](n3nc(-c4ccc(Oc5ccccc5)cc4F)c4c(N)ncnc43)C2)CC1	193	0.6	22	31 (≈ 20.2 µg/mL)		
COC(=O)N1CCN(C(C)(C)/C=C(\C#N)C(=O)N2CCC[C@@H](n3nc(-c4ccc(Oc5ccccc5)cc4F)c4c(N)ncnc43)C2)CC1	179	3.2	24	1.1 (≈ 0.735 µg/mL)	68	bioavailability [2]: 11.5%; Cmax [3]: 142 ng/mL; clearance [4]: 89 mL/min/kg; AUC [5]: 432 ng·h/mL
CC(C)(/C=C(\C#N)C(=O)N1CCC[C@@H](n2nc(-c3ccc(Oc4ccccc4)cc3F)c3c(N)ncnc32)C1)N1CCNCC1	401	0.07	3.4	238 (≈ 145 µg/mL)		
N#C/C(=C/C1CC1)C(=O)N1CCC[C@@H]1Cn1nc(-c2ccc(Oc3ccccc3)cc2F)c2c(N)ncnc21	196					
C[C@@H]1CN(C(C)(C)/C=C(\C#N)C(=O)N2CCC[C@@H](n3nc(-c4ccc(Oc5ccccc5)cc4F)c4c(N)ncnc43)C2)C[C@H](C)N1C	128	0.3	2.5	263 (≈ 171 µg/mL)	14	bioavailability [2]: 67%; Cmax [3]: 392 ng/mL; clearance [4]: 91 mL/min/kg; AUC [5]: 2460 ng·h/mL; inhibition (INH) [18]: Active
C[C@@H]1CN(C(C)(C)/C=C(\C#N)C(=O)N2CCC[C@@H](n3nc(-c4ccc(Oc5ccccc5)cc4F)c4c(N)ncnc43)C2)C[C@H](C)N1	442					
COCCN1CCN(C(C)(C)/C=C(\C#N)C(=O)N2CCC[C@@H](n3nc(-c4ccc(Oc5ccccc5)cc4F)c4c(N)ncnc43)C2)CC1	169	0.2	6	210 (≈ 140 µg/mL)	49	
